Activity calls are given as the source filed them. The rule behind the calls is not given here.
Biological target: Chaperone protein DnaK (Escherichia coli (strain K12)) (UniProt P0A6Y8)
Experiment: binders of DnaK substrate-binding domain, biophysical, NMR, chaperone (AID 1033)
Settings: Purified DnaK SBD, NMR ligand binding

Chaperone protein DnaK (Escherichia coli (strain K12)), sequence (P0A6Y8 whole entry, looked up, the tested form may be a part): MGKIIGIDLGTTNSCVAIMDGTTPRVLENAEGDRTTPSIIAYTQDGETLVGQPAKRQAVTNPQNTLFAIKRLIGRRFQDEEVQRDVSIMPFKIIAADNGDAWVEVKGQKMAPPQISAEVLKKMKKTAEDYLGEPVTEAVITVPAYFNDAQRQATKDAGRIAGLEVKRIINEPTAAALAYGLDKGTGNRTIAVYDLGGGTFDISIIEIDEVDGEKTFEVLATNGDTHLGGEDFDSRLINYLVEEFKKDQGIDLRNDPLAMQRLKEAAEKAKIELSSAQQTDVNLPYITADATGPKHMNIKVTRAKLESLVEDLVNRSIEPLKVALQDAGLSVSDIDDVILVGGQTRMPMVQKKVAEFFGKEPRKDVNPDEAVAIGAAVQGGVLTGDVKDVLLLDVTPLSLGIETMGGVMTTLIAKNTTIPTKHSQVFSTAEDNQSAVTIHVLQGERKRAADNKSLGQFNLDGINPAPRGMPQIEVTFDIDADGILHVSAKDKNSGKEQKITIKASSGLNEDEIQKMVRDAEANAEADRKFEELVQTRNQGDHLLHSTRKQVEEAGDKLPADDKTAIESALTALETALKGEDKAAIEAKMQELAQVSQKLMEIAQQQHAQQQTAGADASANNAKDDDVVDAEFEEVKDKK

SMILES | Kd
CCSc1nc2ccccc2n1CC(N)=O | > 4 mM (inactive)
Nc1nc(-c2ccncc2)cs1 | > 4 mM (inactive)
O=C1C[C@@H](c2ccc(O)cc2)Oc2cc(O)cc(O)c21 | > 4 mM (inactive)
O=C(O)c1cccc2c1OCC2 | > 4 mM (inactive)
O=C(Nc1cccnc1)c1c(F)c(F)c(F)c(F)c1F | > 4 mM (inactive)
CN1CCC(NC(=O)c2cnccn2)CC1 | > 4 mM (inactive)
COc1c(C)c2c(c(O)c1C/C=C(\C)CCC(=O)O)C(=O)OC2 | > 4 mM (inactive)
OCc1cccs1 | > 4 mM (inactive)
NC(=S)N1CCC(c2ccccc2)=N1 | > 4 mM (inactive)
NC(=O)CSc1nnc2ccc(-c3ccco3)nn12 | > 4 mM (inactive)
O=C(NN=C1CCCC1)c1ccncc1 | > 4 mM (inactive)
O=C(Cc1c(F)cccc1Cl)Nc1ccon1 | > 4 mM (inactive)
CC(O)C(=O)N/N=C/c1ccccc1 (stereo not drawn) | > 4 mM (inactive)
CC(=O)n1nc(-c2cccnc2)nc1N | > 4 mM (inactive)
Cc1ccc(OCC(=O)n2cnnc2N)c(C)c1 | > 4 mM (inactive)
CC(=O)Nc1cccc(Cn2cccn2)c1 | > 4 mM (inactive)
Cc1cccc(-n2c(N)cc(=O)[nH]c2=S)c1C | > 4 mM (inactive)
S=C(NC1=NCCS1)Nc1ccccc1 | > 4 mM (inactive)
Cc1nn(C)c(C)c1C(=O)O | > 4 mM (inactive)
COc1cc2c3cc1Oc1c(OC)c(OC)cc4c1[C@@H](Cc1cccc(c1)Oc1ccc(c(O)c1)C[C@@H]3N(C)CC2)N(C)CC4 | > 4 mM (inactive)
COc1ccc(-c2c(C)n([O-])c(C)c(C)[n+]2=O)cc1 | > 4 mM (inactive)
Cc1ncoc1C(=O)Nc1ncc([N+](=O)[O-])s1 | > 4 mM (inactive)
Cc1cc(C(=O)N2CCCCCC2)cs1 | > 4 mM (inactive)
O=C(O)CNS(=O)(=O)c1cccs1 | > 4 mM (inactive)
CC(=O)N=c1cccc(NC(C)=O)n1O | > 4 mM (inactive)

SMILES | Kd
COc1cccc2c(=O)n(CC(N)=O)ccc12 | > 4 mM (inactive)
O=C(O)c1csc(-c2cccnc2)n1 | > 4 mM (inactive)
COc1ccc(C(=O)NC2=NCCS2)cc1OC | > 4 mM (inactive)
NC(=O)CSc1nnc(-c2ccncc2)o1 | > 4 mM (inactive)
CCOC(=O)c1cc2ccccc2oc1=O | > 4 mM (inactive)
O=C1CN2C(=N1)N(Cc1ccccc1)c1ccccc12 | > 4 mM (inactive)
COC1=CC(C)[C@@H]2C[C@H]3OC(=O)C[C@H]4C(C)=C(OC)C(=O)C([C@@]34C)[C@@]2(C)C1=O (stereo partly drawn) | > 4 mM (inactive)
O=C1CC(=O)N2N=C(c3ccccc3)SC2=N1 | > 4 mM (inactive)
NCc1ccc(-n2cccc2)cc1 | > 4 mM (inactive)
CC(C)CNc1cc(=O)n(C)c(=O)n1C | > 4 mM (inactive)
NC(=O)CSc1nnc2ccc(-c3ccccn3)nn12 | > 4 mM (inactive)
C(=N\n1cnnc1)/c1cccs1 | > 4 mM (inactive)
CC(C)c1c(O)c(-c2cc3c(c(C(C)C)c2O)CCC2C(C)(C)CCC[C@]32C)cc2c1CCC1C(C)(C)CCC[C@]21C (stereo partly drawn) | > 4 mM (inactive)
CCOC(=O)CSCC(=O)Nc1nccs1 | > 4 mM (inactive)
O=C(CO)N/N=C/c1ccccc1F | > 4 mM (inactive)
CCCCn1c(=O)cc(O)c2ccccc21 | > 4 mM (inactive)
CN1C(=O)C(Cc2c[nH]c3ccccc23)C(=O)N(C)C1=O | > 4 mM (inactive)
O=c1c2ccccc2nc2n1CCC2O (stereo not drawn) | > 4 mM (inactive)
Cn1cnc2c(=O)[nH]cc([N+](=O)[O-])c21 | > 4 mM (inactive)
COC(=O)N1CCN(c2ccc(OC)cc2)CC1 | > 4 mM (inactive)
CS(=O)(=O)NC1CCN(Cc2ccccc2)CC1 | > 4 mM (inactive)
O=C(O)c1[nH]nc2c1COc1ccccc1-2 | > 4 mM (inactive)
CC1CCN(C(=S)c2ccccc2O)CC1 | > 4 mM (inactive)
Cc1nnsc1C(=O)Nc1cccc(S(N)(=O)=O)c1 | > 4 mM (inactive)
CSc1nc(=O)[nH]c2c1CCC2 | > 4 mM (inactive)

SMILES | Kd
O=c1ccnc(Nc2ccccc2O)[nH]1 | > 4 mM (inactive)
OCC1CCCN2CCCCC12 (stereo not drawn) | > 4 mM (inactive)
Cc1cc(=O)oc2cc3c(cc12)OCCO3 | > 4 mM (inactive)
Cc1nnc(SCC(=O)N2CCCCC2)s1 | > 4 mM (inactive)
CCOC(=O)Cn1cnc2c1c(=O)[nH]c(=O)n2C | > 4 mM (inactive)
Cc1cn(C(=O)CN2C(=O)c3ccccc3C2=O)c(C)n1 | > 4 mM (inactive)
CC(C)C1COc2cc3oc(=O)ccc3cc2O1 (stereo not drawn) | > 4 mM (inactive)
Nc1ccnc(C(=O)O)c1 | > 4 mM (inactive)
COc1cc(C(C)=O)cc(OC)c1O | > 4 mM (inactive)
O=C(Nc1ccccc1)c1cnc2n(c1=O)CCS2 | > 4 mM (inactive)
c1ccc2[nH]c(SCc3cscn3)nc2c1 | > 4 mM (inactive)
COC(=O)[C@@H]1OC(=O)[C@H]2O[C@@]23[C@@]1(C)CCC1[C@@]2(C)CCC(=O)C(C)(C)C2C[C@@H](OC(C)=O)[C@]13C (stereo partly drawn) | > 4 mM (inactive)
CC(C)c1c(O)ccc2c1CCC1[C@@](C)(C=O)CCC[C@]21C (stereo partly drawn) | > 4 mM (inactive)
NC(=O)CN1CC(=O)NC(=O)C1 | > 4 mM (inactive)
Nc1nc(SCc2ccc3c(c2)OCCO3)n[nH]1 | > 4 mM (inactive)
CSc1n[nH]c(NCc2ccccc2)n1 | > 4 mM (inactive)
Nc1ncnc2c1ncn2[C@@H]1O[C@H](CO)[C@@H](O)[C@H]1O | > 4 mM (inactive)
S=c1[nH]c2cccnc2[nH]1 | > 4 mM (inactive)
CC(=O)CC1CCCCN1 (stereo not drawn) | > 4 mM (inactive)
COc1cccc(OC)c1C(=O)N1CCOCC1 | > 4 mM (inactive)
CN1CCC(NC(=O)c2ccccc2[N+](=O)[O-])CC1 | > 4 mM (inactive)
O=C1CS/C(=N/N=C2CCCC2)N1 | > 4 mM (inactive)
O=c1[nH]c(O)c(C=NCc2cccs2)c(=O)[nH]1 | > 4 mM (inactive)
CN(C)C(=O)CCNS(=O)(=O)c1ccccc1 | > 4 mM (inactive)
CC(C)(C)CC(=O)NNC(=O)c1cnccn1 | > 4 mM (inactive)

SMILES | Kd
O=C(O)c1ccc(NC(=O)c2cccs2)cc1 | > 4 mM (inactive)
O=C(O[C@@H]1Cc2c(O)cc(O)cc2O[C@@H]1c1cc(=O)c(O)c2c(O)c(O)cc([C@H]3Oc4cc(O)cc(O)c4C[C@H]3O)c2c1)c1cc(O)c(O)c(O)c1 | > 4 mM (inactive)
c1ccc(Cc2nnc3sc(-c4ccccn4)nn23)cc1 | > 4 mM (inactive)
CC(C)C(=O)NCC(c1ccco1)N1CCOCC1 (stereo not drawn) | > 4 mM (inactive)
O=C(O)CS(=O)(=O)c1ccccc1[N+](=O)[O-] | > 4 mM (inactive)
NC(=O)COc1ccccc1O | > 4 mM (inactive)
CCOC(=O)C1CCN(Cc2ccccc2)CC1=O (stereo not drawn) | > 4 mM (inactive)
OCc1csc(-c2ccccc2)n1 | > 4 mM (inactive)
c1ccc(CNc2ncnc3nc[nH]c23)nc1 | > 4 mM (inactive)
C/C=C/C=N/NC(=O)c1ccc(=O)n(C)c1 | > 4 mM (inactive)
CNCc1ccccc1 | > 4 mM (inactive)
Cc1ccccc1N1CCN(C(=O)C2CCCCC2)CC1 | > 4 mM (inactive)
O=C(O)C1=Cc2ccccc2OC1 | > 4 mM (inactive)
C/C=C(\C)c1nnc(NC(=O)c2ccco2)s1 | > 4 mM (inactive)
O=C1CCCCCN1CO | > 4 mM (inactive)
CN1C(CC(=O)c2ccccc2)CCCC1CC(O)c1ccccc1 (stereo not drawn) | > 4 mM (inactive)
CCCn1c(C)cc(=O)[nH]c1=O | > 4 mM (inactive)
COC(=O)C1=C(C)N(c2cccc(C(C)=O)c2)C(=O)C1 | > 4 mM (inactive)
O=C1OC(N2CCOCC2)c2ccccc21 (stereo not drawn) | > 4 mM (inactive)
O=c1n(-c2cccc(Cl)c2)c(=O)n2n1CCC2 | > 4 mM (inactive)
O=C1c2ccccc2C(=O)N1/N=C/c1ccc[nH]1 | > 4 mM (inactive)
CCSc1n[nH]c(=O)[nH]c1=O | > 4 mM (inactive)
c1ccc(-n2ncc3c(NCc4ccco4)ncnc32)cc1 | > 4 mM (inactive)
COc1cc(/C=C2\SC(=S)NC2=O)ccc1O | > 4 mM (inactive)
CSc1ccccc1NC(=O)c1ccoc1C | > 4 mM (inactive)

SMILES | Kd
O=C1C2CC=CCC2C(=O)N1c1ccccc1O (stereo not drawn) | > 4 mM (inactive)
CNC(=O)Nc1ccc(C(=O)NC)cc1 | > 4 mM (inactive)
OCc1ccc(Oc2ccccc2)nc1 | > 4 mM (inactive)
O=C1c2ccccc2C(=O)c2c1ccc(O)c2O | > 4 mM (inactive)
Cn1c(=O)n(-c2cccc(Cl)c2)c(=O)n1C | > 4 mM (inactive)
CCc1noc(C)c1C(=O)N1CCCC1 | > 4 mM (inactive)
COC(=O)Nc1nc2c(s1)CCCC2 | > 4 mM (inactive)
COc1c2c(c(CC=C(C)C)c3oc(=O)c(-c4ccc(O)cc4)c(O)c13)OC(C)(C)C=C2 | > 4 mM (inactive)
CCNC(=O)CC[C@H](N)C(=O)O | > 4 mM (inactive)
O=C(c1ccc(F)cc1)C1CCNCC1 | > 4 mM (inactive)
Cc1occc1C(=O)NCc1ccccc1F | > 4 mM (inactive)
O=C1CSC(=Nc2cc(Cl)ccc2Cl)N1 | > 4 mM (inactive)
O=C1c2cccnc2C(=O)N1Cc1ccc2c(c1)OCO2 | > 4 mM (inactive)
CC(=O)c1cccc(NC(=O)Nc2c(C)nn(C)c2C)c1 | > 4 mM (inactive)
O=C(O)Cn1cc(C(=O)c2cccs2)c2ccccc21 | > 4 mM (inactive)
OCc1ccncc1 | > 4 mM (inactive)
Cc1c(C(=O)Nc2cnccn2)oc2ccccc12 | > 4 mM (inactive)
O=C1CS/C(=N/S(=O)(=O)c2ccccc2)N1 | > 4 mM (inactive)
O=S(=O)(N1CCCCC1)n1nnc2ccccc21 | inactive
Cn1c(SCC(N)=O)nc2c1c(=O)[nH]c(=O)n2C | > 4 mM (inactive)
O=C(NCc1cccs1)c1nc2ncccn2n1 | inactive
CNC(=S)Nc1ccc(OC)cc1C | > 4 mM (inactive)
CC1(O)CC2C(CC1O)C2(C)C (stereo not drawn) | > 4 mM (inactive)
